Laboratory results published in publication PMC7017353, “Delineating the Molecular Basis of the Calmodulin–bMunc13-2 Interaction by Cross-Linking/Mass Spectrometry—Evidence for a Novel CaM Binding Motif in bMunc13-2” (Cells, 2020).
Where a SMILES comes first, the peptide text is derived from it.

Tested on: recombinant CaM
Experiment: Photoaffinity labeling (PAL)-based competition assay
Type: binding
Conditions: photoprobe segment-C-Bpa 5 µM, CaM 5 µM, 200 µM Ca2+, SDS-PAGE and MALDI-TOF-MS; for suppression of photoadduct formation (in words): competitor up to 50-fold molar excess; for molar excess of competitor for complete suppression of photoadduct formation (full displacement of photoprobe): competitor 0–250 µM, 2 h RT
Procedure: Photoreactive peptides were synthesized by Fmoc chemistry using the amino acid derivative Fmoc-para-benzoylphenylalanine (Bpa, Novabiochem). Photoaffinity labeling (PAL)-based competition experiments with recombinant CaM were performed and analyzed as described previously. Briefly, CaM (5 µM) and segment-C-Bpa (5 µM) or segment-CS-Bpa (5 µM) were incubated in 50 mM HEPES (pH 7.2), 150 mM KCl, 5 mM DTT for 2 h at RT in the dark with (200 µM Ca^2+) or without (2 mM EGTA) calcium, and in the presence of increasing concentrations (0–250 μM) of competitor peptides. Following UV irradiation, photoadduct formation was visualized and quantified by SDS-PAGE and linear matrix-assisted laser desorption/ionization–time-of-flight–mass spectrometry (MALDI-TOF-MS).

Row | Molecule | suppression of photoadduct formation (in words) | molar excess of competitor for complete suppression of photoadduct formation (full displacement of photoprobe) [fold molar excess]
1 | 703KLSLEQVCAETIYLNKCINNDKNVLREKRLRQKKLLQELV742 [Segment F723D, segment-C variant with F723 exchanged to aspartic acid] | not able to displace segment-C-Bpa at all | 
2 | 719 CINNFKNVLREKRLRQKKLLQELV 742 [segment-CS] | could not suppress photoadduct formation | > 50
3 | 719CINNFKNVLREKRLRQKKLLQELVQTASHLSVED742 [segment-CL] | could not suppress photoadduct formation | > 50
4 | CC[C@H](C)[C@H](NC(=O)[C@H](CS)NC(=O)[C@H](CCCCN)NC(=O)[C@H](CC(N)=O)NC(=O)[C@H](CC(C)C)NC(=O)[C@H](Cc1ccc(O)cc1)NC(=O)[C@@H](NC(=O)[C@@H](NC(=O)[C@H](CCC(=O)O)NC(=O)[C@H](C)NC(=O)[C@H](CS)NC(=O)[C@H](CC(=O)O)NC(=O)[C@H](CCC(N)=O)NC(=O)[C@H](CCC(=O)O)NC(=O)[C@H](CC(C)C)NC(=O)[C@H](CO)NC(=O)[C@H](CC(C)C)NC(=O)[C@H](CCCCN)NC(C)=O)[C@@H](C)O)[C@@H](C)CC)C(=O)N[C@@H](CC(N)=O)C(=O)N[C@@H](CC(N)=O)C(=O)N[C@@H](Cc1ccccc1)C(=O)N[C@@H](CCCCN)C(=O)N[C@@H](CC(N)=O)C(=O)N[C@H](C(=O)N[C@@H](CC(C)C)C(=O)N[C@@H](CCCNC(=N)N)C(=O)N[C@@H](CCC(=O)O)C(=O)N[C@@H](CCCCN)C(=O)N[C@@H](CCCNC(=N)N)C(=O)N[C@@H](CC(C)C)C(=O)N[C@@H](CCCNC(=N)N)C(=O)N[C@@H](CCC(N)=O)C(=O)N[C@@H](CCCCN)C(=O)N[C@@H](CCCCN)C(=O)N[C@@H](CC(C)C)C(=O)N[C@@H](CC(C)C)C(=O)N[C@@H](CCC(N)=O)C(=O)N[C@@H](CCC(=O)O)C(=O)N[C@@H](CC(C)C)C(=O)N[C@H](C(N)=O)C(C)C)C(C)C [Segment V709D] (Ac-KLSLEQDCAETIYLNKCINNFKNVLREKRLRQKKLLQELV-NH2; N-terminus and C-terminus assumed) |  | > 50
